This is an account of results in patent US20070071688A1, “Pharmaceutical compositions for transdermal administration of anti-inflammatory agents” (sanofi-aventis, priority 2000, published 2007).

Series [1] can be described thus: Saturation solubility of ibuprofen in components of the transdermal formulation (without matrix). The series is classed as physicochemical. The conditions noted are these: 30° C. The protocol: Comparative tests were carried out in order to determine the saturation solubility of ibuprofen in various components of the transdermal formulation of the invention in the absence of matrix, namely water, 2-ethylhexyl 2-ethylhexanoate as transcutaneous absorption promoter, referred to hereinbelow as “promoter”, and isopropanol as nonaqueous solvent.
These various components were used alone or as homogeneous mixtures forming a clear solution, and the solubility measurements were performed at 30° C., after 24 hours of magnetic stirring and after filtration through a 0.22 μm filter.

The nature of series [2]: Preliminary trials on solubility of ibuprofen in various solvents or components. Format: physicochemical. The method, then:
In the context of the present invention, preliminary trials were carried out directed essentially toward studying the solubility of ibuprofen in various solvents or components.

Converted amounts (≈) assume the structure as drawn.

Take `CC(C)Cc1ccc(C(C)C(=O)O)cc1` (centres unmarked) [Ibuprofen]: the Ibuprofen saturating concentration in series [1] (isopropanol 68.21 / promoter 31.79 % m/m, no water, 24 hours) is 403 mg/mL; in series [1] (isopropanol 89.31 / promoter 10.69 % m/m, no water, 24 hours) it was 424 mg/mL; in series [1] (isopropanol 100% m/m, 24 hours magnetic stirring, 0.22 μm filtration), 441 mg/mL; in series [1] (promoter (2-ethylhexyl 2-ethylhexanoate) 100% m/m, 24 hours magnetic stirring, 0.22 μm filtration), 192 mg/mL; in series [1] (water 4.33 / isopropanol 85 / promoter 10.67 % m/m, 24 hours), 451 mg/mL; in series [1] (water 4.38 / isopropanol 68.16 / promoter 27.46 % m/m, 24 hours) it was 431 mg/mL. Further, the Ibuprofen saturating concentration in series [1] (water 8.54 / isopropanol 68.23 / promoter 23.23 % m/m, 24 hours) is 436 mg/mL; in series [1] (water 8.59 / isopropanol 80.7 / promoter 10.69 % m/m, 24 hours) it was 448 mg/mL. The solubility thermodynamic at 24 h in series [1] (thermodynamic from solid, water 100% m/m, 24 hours magnetic stirring, 0.22 μm filtration, read-out: Ibuprofen saturating concentration) worked out at 69 µg/mL (≈ 334 µM). Moreover, the solubility in water entry in series [2] is on record as “entirely water-insoluble”. The “solubility in fatty acid ester/alcohol mixtures” value in series [2] (2-ethylhexyl 2-ethylhexanoate/ethanol or isopropanol mixtures) is on record as “soluble”.
